Assay results published in patent publication US9139574B2, “Tumor targeted drug combretastatin A4 derivative” (Nanjing Sanhome Pharmaceutical Co., Ltd., priority 2011, dated 2015).
pIC50: −log10 of the molar value.

Tests used:
DU-145 = assay: MTT assay of anti-tumor activity, DU-145; type: cell-based; details: DU-145 cells
Procedure: (§1) The cells were digested and counted. The cell suspension was prepared in a concentration of 5×10^4 cells/ml. 100 μL of the cell suspension per well was added into 96-well plates (5×10^3 cells per well). The 96-well plates were placed in a 5% CO2 incubator at 37° C. for 24 hours. The drugs were diluted with the complete medium to the desired concentrations. 100 μL of the corresponding drug-containing medium was added into each well. Negative control group, vehicle control group and positive control group were set. The 96-well plates were placed in 5% CO2 incubator at 37° C. for 72 hours. The 96-well plates were subjected to a MTT assay, and measured OD value at λ=490 nm. The measurement procedure comprises adding 20 μL MTT (5 mg/ml) for each well, incubating for 4 hours in an incubator, discarding the medium, dissolving by adding 150 μL DMSO into each well, mixing uniformly by rocking gently for 10 minutes on a shaker, reading OD value of each well in a microplate reader at λ=490 nm. The inhibition rate was calculated, the results were recorded, and the anti-tumor activity was assessed.

HCT-116 = assay: MTT assay of anti-tumor activity, HCT-116; type: cell-based; details: HCT-116 cells
Procedure: as §1

K562 = assay: MTT assay of anti-tumor activity, K562; type: cell-based; details: K562 cells
Procedure: as §1

NCI-H460 = assay: MTT assay of anti-tumor activity, NCI-H460; type: cell-based; details: NCI-H460 cells
Procedure: as §1

tubulin = assay: Inhibitory activity on tubulin polymerization (kit BK011P, Cytoskeleton); type: biochemical; details: 37° C., 60 minutes, fluorescence, Vmax
Procedure: The compounds were formulated into six different concentrations (0.03, 0.3, 0.9, 3, 9, 30 μM). The tubulin polymerization assay kit (Cat. # BK011P, Cytoskeleton) was used for testing. The samples were incubated at 37° C. for 60 minutes, and then fluorescence was collected using Gemini EM Fluorescence Microplate Reader collected at 410-460 nm. Vmax was calculated using SOFTMAX® PRO microplate data acquisition & analysis software. The tubulin inhibition (IC50) of the compound was calculated using GRAPHPAD PRISM® v5.01 graphing and statistics software.

MCF-7 = assay: MTT assay of anti-tumor activity, MCF-7; type: cell-based
Procedure: as §1

[1] = Homo sapiens, MCF7, 72 h, MCF-7 cells

pIC50 (DU-145; Homo sapiens, DU-145, 72 h) | pIC50 (HCT-116; Homo sapiens, HCT-116, 72 h) | pIC50 (K562; Homo sapiens, K562, 72 h) | pIC50 (NCI-H460; Homo sapiens, NCI-H460, 72 h) | pIC50 (tubulin) | pIC50 (MCF-7; [1]) | melting point [°C] | Structure (SMILES) | other results
7.03 | 6.87 | 8.49 | < 6.52 | – | 8.14 | 168.8 to 170.9 | COc1cc(-c2ncn(-c3cc(OC)c(OC)c(OC)c3)c2-c2ccc(N(C)C)cc2)cc(OC)c1OC [Compound C106, 5-(4-dimethylaminophenyl)-4-(3,4,5-trimethoxyphenyl)-1-(3,4,5-trimethoxyphenyl)imidazole] | –
8.60 | 7.15 | 7.31 | 7.48 | 6.33 | 6.68 | 149.9 to 151.6 | COc1cc(OC)cc(-c2ncoc2-c2ccc(OC)c(O)c2)c1 [Compound C110, 4-(3,5-dimethoxyphenyl)-5-(3-hydroxy-4-methoxyphenyl)oxazole] | –
< 6.52 | 6.47 | 8.24 | 7.28 | 6.34 | 7.00 | – | COc1cc(OC)cc(-c2ncoc2-c2ccc(OC)c(N)c2)c1 [Compound C115, 4-(3,5-dimethoxyphenyl)-5-(3-amino-4-methoxyphenyl)oxazole] | –
– | – | – | – | 6.28 | – | 178.6 to 180.4 | COc1cc(OC)cc(-c2ncoc2-c2ccc(OC)c(O)c2O)c1 [Compound C116, 4-(3,5-dimethoxyphenyl)-5-(2,3-dihydroxy-4-methoxyphenyl)oxazole] | –
6.89 | < 6.52 | 8.07 | 7.99 | – | 7.05 | 168.1 to 172.4 | COc1cc(OC)cc(-c2ncoc2-c2ccc(OC)c(O)c2F)c1 [Compound C117, 4-(3,5-dimethoxyphenyl)-5-(2-fluoro-3-hydroxy-4-methoxyphenyl)oxazole] | –
– | 7.39 | 8.55 | 7.84 | 6.31 | 7.33 | – | COc1cc(OC)cc(-c2nc[nH]c2-c2ccc(OC)c(O)c2)c1 [Compound C118, 4-(3,5-dimethoxyphenyl)-5-(3-hydroxy-4-methoxyphenyl)-imidazole] | –
– | – | – | – | 5.63 | – | 132.6 to 134 | COc1cc(OC)cc(-c2ncoc2-c2ccc(OC)c(N)c2N)c1 [Compound C121, 4-(3,5-dimethoxyphenyl)-5-(2,3-diamino-4-methoxyphenyl)oxazole] | –
< 6.52 | < 6.52 | 8.14 | – | 6.18 | 8.92 | 149.9 to 151.6 | CNc1ccc(-c2ocnc2-c2cc(OC)cc(OC)c2)cc1O [Compound C123, 4-(3,5-dimethoxyphenyl)-5-(3-hydroxy-4-methylaminophenyl)oxazole] | pIC50 (HCT-116; 72 hours): 6.72
6.55 | 7.48 | 8.19 | < 6.52 | 5.98 | 8.37 | – | COc1cc(OC)cc(-c2ncoc2-c2ccc(OC)c(O)c2N)c1 [Compound C124, 4-(3,5-dimethoxyphenyl)-5-(2-amino-3-hydroxy-4-methoxyphenyl)oxazole] | –
– | – | – | – | 6.18 | – | – | COc1cc(OC)cc(-c2nc[nH]c2-c2ccc(OC)c(N)c2)c1 [Compound C129, 4-(3,5-dimethoxyphenyl)-5-(3-amino-4-methoxyphenyl)imidazole] | –
6.79 | 7.17 | 8.16 | 7.12 | – | 8.25 | 99.2 to 101.3 | COc1cc(OC)cc(-c2ncn(C)c2-c2ccc(OC(F)F)c(N)c2)c1 [Compound C135, 4-(3,5-dimethoxyphenyl)-5-(3-amino-4-difluoromethoxyphenyl)-1-methylimidazole] | –
6.91 | < 6.52 | 8.12 | 7.05 | – | 8.05 | – | COc1cc(OC)cc(-c2nc[nH]c2-c2ccc(OC)c(O)c2N)c1 [Compound C147, 4-(3,5-dimethoxyphenyl)-5-(2-amino-3-hydroxy-4-methoxyphenyl)imidazole] | –
– | – | – | – | – | – | – | COc1cc(OC)cc(-c2ncn(C)c2-c2scc3c2OCCO3)c1 [Compound C238, N-methyl-4-(3,5-dimethoxyphenyl)-5-[(3,4-ethylenedioxyl)thienyl]imidazole] | pIC50 (DU-145; 72 hours): 6.82; pIC50 (HCT-116; 72 hours): 6.64; pIC50 (K562; 72 hours): 7.95; pIC50 (NCI-H460; 72 hours): < 6.52; pIC50 (MCF-7; MCF-7 cells, 72 hours): 8.21
– | – | – | – | – | – | – | COc1cc(-c2ncn(CCO)c2-c2ccc(N(CCCl)CCCl)cc2)cc(OC)c1OC [Compound C248] | pIC50 (DU-145; 72 hours): < 6.52; pIC50 (HCT-116; 72 hours): 6.51; pIC50 (K562; 72 hours): 7.95; pIC50 (NCI-H460; 72 hours): 7.99; pIC50 (MCF-7; MCF-7 cells, 72 hours): 8.16
– | – | – | – | – | – | – | COc1cc(OC)cc(-c2ncoc2-c2ccc3c(c2)NC(=O)CO3)c1 [Compound C253, 4-(3,5-dimethoxyphenyl)-5-[6-(3-oxobenzomorpholiny)]oxazole] | pIC50 (DU-145; 72 hours): 7.12; pIC50 (HCT-116; 72 hours): 6.92; pIC50 (K562; 72 hours): 6.51; pIC50 (NCI-H460; 72 hours): 7.58; pIC50 (MCF-7; MCF-7 cells, 72 hours): 8.19
7.99 | 6.34 | 8.12 | < 6.52 | 5.80 | – | – | COc1cc(OC)cc(-c2ncn(CCO)c2-c2ccc(OC)c(F)c2)c1 [Compound C256, N-hydroxyethyl-4-(3,5-dimethoxyphenyl)-5-(3-fluoro-4-methoxyphenyl)imidazole] | –
– | – | – | – | 6.07 | – | – | CNc1ccc(-c2ocnc2-c2cc(OC)cc(OC)c2)cc1F [Compound C264, 4-(3,5-dimethoxyphenyl)-5-(3-fluoro-4-methylaminophenyl)oxazole] | –

Structure (SMILES) | pIC50 (DU-145; Homo sapiens, DU-145, 72 h) | pIC50 (HCT-116; Homo sapiens, HCT-116, 72 h) | pIC50 (K562; Homo sapiens, K562, 72 h) | pIC50 (NCI-H460; Homo sapiens, NCI-H460, 72 h) | pIC50 (tubulin) | pIC50 (MCF-7; [1]) | melting point [°C] | other results
COc1ccc(/C=C\c2cc(OC)c(OC)c(OC)c2)cc1O [CA4, cis-1-(3,4,5-trimethoxyphenyl)-2-(3′-hydroxy-4′-methoxyphenyl)ethylene, reference compound] | 8.14 | 7.37 | 8.28 | 8.25 | […] | 8.26 | – | –
COc1ccc(-c2c(-c3cc(OC)c(OC)c(OC)c3)ncn2-c2ccccc2)cc1O [Compound C087, 5-(3-hydroxy-4-methoxyphenyl)-4-(3,4,5-trimethoxyphenyl)-1-phenylimidazole] | – | – | – | – | – | – | 176 to 177 | pIC50 (DU-145; Homo sapiens, 72 hours): < 6.52; pIC50 (HCT-116; Homo sapiens, 72 hours): 7.11; pIC50 (K562; Homo sapiens, 72 hours): 8.34; pIC50 (NCI-H460; Homo sapiens, 72 hours): 6.82; pIC50 (MCF-7; Homo sapiens, MCF7, MCF-7 cells, 72 hours): 8.21
